pEC50, pKi: −log10 of the molar value.
Target: T1, Estrogen receptor (Homo sapiens, UniProt P03372)
T1 sequence (P03372 whole entry): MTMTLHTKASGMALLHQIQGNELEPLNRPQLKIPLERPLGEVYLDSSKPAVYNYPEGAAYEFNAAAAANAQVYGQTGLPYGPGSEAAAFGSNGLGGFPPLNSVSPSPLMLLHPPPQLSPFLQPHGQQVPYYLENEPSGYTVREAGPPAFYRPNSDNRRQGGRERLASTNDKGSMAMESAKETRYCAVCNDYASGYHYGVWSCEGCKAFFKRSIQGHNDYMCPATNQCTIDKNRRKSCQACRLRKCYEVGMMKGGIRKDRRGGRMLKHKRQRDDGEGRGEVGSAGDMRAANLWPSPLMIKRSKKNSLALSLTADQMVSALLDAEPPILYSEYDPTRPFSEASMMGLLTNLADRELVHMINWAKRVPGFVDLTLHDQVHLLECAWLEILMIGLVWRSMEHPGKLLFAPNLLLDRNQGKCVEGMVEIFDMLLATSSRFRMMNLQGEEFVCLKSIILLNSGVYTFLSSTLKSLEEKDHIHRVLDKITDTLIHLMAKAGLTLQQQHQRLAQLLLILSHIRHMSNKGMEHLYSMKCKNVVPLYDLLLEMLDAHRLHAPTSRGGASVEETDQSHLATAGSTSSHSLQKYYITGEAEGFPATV
Assay: Binding affinity for Estrogen receptor alpha

| SMILES | pKi | pEC50 |
| --- | --- | --- |
| O=C(c1ccc(OCCN2CCCCC2)cc1)c1oc2cc(O)ccc2c(=O)c1-c1ccc(O)cc1 | 8.41 | – |
| O=c1c(-c2ccc(O)cc2)c(Sc2ccc(O)cc2)oc2cc(O)ccc12 | – | 5.73 |
| O=c1c(-c2ccc(O)cc2)c(Oc2ccc(OCCN3CCCCC3)cc2)oc2cc(O)ccc12 | – | 6.70 |
| O=c1c(-c2ccc(O)cc2)c(Oc2ccc(O)cc2)oc2cc(O)ccc12 | – | 5.76 |
| O=c1c(-c2ccc(O)cc2)c(Sc2ccc(OCCN3CCCCC3)cc2)oc2cc(O)ccc12 | – | 6.11 |
